Test results: patent US20220169628A1 (University of Florida Research Foundation, Incorporated, priority 2019, published 2022)

Legend:
MOLT-4 cells = test: Cell viability assay, MTS, 48 h, MOLT-4; assay type: cell-based; details: Homo sapiens, MOLT-4, 48 h, 48 hours, read-out: IC50 (48 hours) MOLT-4
Protocol: (§1) Acute lymphoblastic leukemia cells (MOLT-4 and RS4; 11) or small cell lung cancer (NCI-H146 or simply H146) were incubated with increasing concentrations of Bcl-xL degraders for 48 h. Cell viability was measured by tetrazolium-based MTS assay.

RS4;11 cells = test: Cell viability assay, MTS, 48 h, RS4;11; assay type: cell-based; details: Homo sapiens, RS4-11, 48 h, 48 hours, read-out: IC50 (48 hours) RS4;11
Protocol: as §1

Row | Compound | IC50 (MOLT-4 cells) [nM] | IC50 (RS4;11 cells) [nM]
1 | Cc1ncsc1-c1ccc([C@H](C)NC(=O)[C@@H]2C[C@@H](O)CN2C(=O)[C@@H](NC(=O)CCCCCCCCCC(=O)N2CCN(CC3(C)CCC(c4ccc(Cl)cc4)=C(CN4CCN(c5ccc(C(=O)NS(=O)(=O)c6ccc(N[C@H](CCN7CCOCC7)CSc7ccccc7)c(S(=O)(=O)C(F)(F)F)c6)cc5)CC4)C3)CC2)C(C)(C)C)cc1 (stereo partly drawn) [degrader #20, (2S,4R)-1-((2S)-2-(11-(4-((4′-chloro-4-methyl-6-((4-(4-(((4-(((R)-4-morpholino-1-(phenylthio)butan-2-yl)amino)-3-((trifluoromethyl)sulfonyl)phenyl)sulfonyl)carbamoyl)phenyl)piperazin-1-yl)methyl)-2,3,4,5-tetrahydro-[1,1′-biphenyl]-4-yl)methyl)piperazin-1-yl)-11-oxoundecanamido)-3,3-dimethylbutanoyl)-4-hydroxy-N—((S)-1-(4-(4-methylthiazol-5-yl)phenyl)ethyl)pyrrolidine-2-carboxamide] | 150 to 500 | 150 to 500
2 | Cc1ncsc1-c1ccc([C@H](C)NC(=O)[C@@H]2C[C@@H](O)CN2C(=O)[C@@H](NC(=O)CCCCCC(=O)N2CCCN(CC3(C)CCC(c4ccc(Cl)cc4)=C(CN4CCN(c5ccc(C(=O)NS(=O)(=O)c6ccc(N[C@H](CCN7CCOCC7)CSc7ccccc7)c(S(=O)(=O)C(F)(F)F)c6)cc5)CC4)C3)CC2)C(C)(C)C)cc1 (stereo partly drawn) [degrader #21, (2S,4R)-1-((2S)-2-(7-(4-((4′-chloro-4-methyl-6-((4-(4-(((4-(((R)-4-morpholino-1-(phenylthio)butan-2-yl)amino)-3-((trifluoromethyl)sulfonyl)phenyl)sulfonyl)carbamoyl)phenyl)piperazin-1-yl)methyl)-2,3,4,5-tetrahydro-[1,1′-biphenyl]-4-yl)methyl)-1,4-diazepan-1-yl)-7-oxoheptanamido)-3,3-dimethylbutanoyl)-4-hydroxy-N—((S)-1-(4-(4-methylthiazol-5-yl)phenyl)ethyl)pyrrolidine-2-carboxamide] | 50 to 150 | < 50
3 | Cc1ncsc1-c1ccc([C@H](C)NC(=O)[C@@H]2C[C@@H](O)CN2C(=O)[C@@H](NC(=O)CCCCCCC(=O)N2CCC3(CCN(CC4(C)CCC(c5ccc(Cl)cc5)=C(CN5CCN(c6ccc(C(=O)NS(=O)(=O)c7ccc(N[C@H](CCN8CCOCC8)CSc8ccccc8)c(S(=O)(=O)C(F)(F)F)c7)cc6)CC5)C4)CC3)CC2)C(C)(C)C)cc1 (stereo partly drawn) [degrader #29, (2S,4R)-1-((2S)-2-(8-(9-((4′-chloro-4-methyl-6-((4-(4-(((4-(((R)-4-morpholino-1-(phenylthio)butan-2-yl)amino)-3-((trifluoromethyl)sulfonyl)phenyl)sulfonyl)carbamoyl)phenyl)piperazin-1-yl)methyl)-2,3,4,5-tetrahydro-[1,1′-biphenyl]-4-yl)methyl)-3,9-diazaspiro[5.5]undecan-3-yl)-8-oxooctanamido)-3,3-dimethylbutanoyl)-4-hydroxy-N—((S)-1-(4-(4-methylthiazol-5-yl)phenyl)ethyl)pyrrolidine-2-carboxamide] | < 50 | < 50
4 | Cc1ncsc1-c1ccc([C@H](C)NC(=O)[C@@H]2C[C@@H](O)CN2C(=O)[C@@H](NC(=O)CCCCC(=O)N2CC3(CCN(CC4(C)CCC(c5ccc(Cl)cc5)=C(CN5CCN(c6ccc(C(=O)NS(=O)(=O)c7ccc(N[C@H](CCN8CCOCC8)CSc8ccccc8)c(S(=O)(=O)C(F)(F)F)c7)cc6)CC5)C4)CC3)C2)C(C)(C)C)cc1 (stereo partly drawn) [degrader #30, (2S,4R)-1-((2S)-2-(6-(7-((4′-chloro-4-methyl-6-((4-(4-(((4-(((R)-4-morpholino-1-(phenylthio)butan-2-yl)amino)-3-((trifluoromethyl)sulfonyl)phenyl)sulfonyl)carbamoyl)phenyl)piperazin-1-yl)methyl)-2,3,4,5-tetrahydro-[1,1′-biphenyl]-4-yl)methyl)-2,7-diazaspiro[3.5]nonan-2-yl)-6-oxohexanamido)-3,3-dimethylbutanoyl)-4-hydroxy-N—((S)-1-(4-(4-methylthiazol-5-yl)phenyl)ethyl)pyrrolidine-2-carboxamide] | 50 to 150 | < 50
5 | Cc1ncsc1-c1ccc([C@H](C)NC(=O)[C@@H]2C[C@@H](O)CN2C(=O)[C@@H](NC(=O)CCCCCC(=O)N2CC3(CCN(CC4(C)CCC(c5ccc(Cl)cc5)=C(CN5CCN(c6ccc(C(=O)NS(=O)(=O)c7ccc(N[C@H](CCN8CCOCC8)CSc8ccccc8)c(S(=O)(=O)C(F)(F)F)c7)cc6)CC5)C4)CC3)C2)C(C)(C)C)cc1 (stereo partly drawn) [degrader #31, (2S,4R)-1-((2S)-2-(7-(7-((4′-chloro-4-methyl-6-((4-(4-(((4-(((R)-4-morpholino-1-(phenylthio)butan-2-yl)amino)-3-((trifluoromethyl)sulfonyl)phenyl)sulfonyl)carbamoyl)phenyl)piperazin-1-yl)methyl)-2,3,4,5-tetrahydro-[1,1′-biphenyl]-4-yl)methyl)-2,7-diazaspiro[3.5]nonan-2-yl)-7-oxoheptanamido)-3,3-dimethylbutanoyl)-4-hydroxy-N—((S)-1-(4-(4-methylthiazol-5-yl)phenyl)ethyl)pyrrolidine-2-carboxamide] | 50 to 150 | < 50
6 | Cc1ncsc1-c1ccc([C@H](C)NC(=O)[C@@H]2C[C@@H](O)CN2C(=O)[C@@H](NC(=O)CCCCCCC(=O)N2CC3(CCN(CC4(C)CCC(c5ccc(Cl)cc5)=C(CN5CCN(c6ccc(C(=O)NS(=O)(=O)c7ccc(N[C@H](CCN8CCOCC8)CSc8ccccc8)c(S(=O)(=O)C(F)(F)F)c7)cc6)CC5)C4)CC3)C2)C(C)(C)C)cc1 (stereo partly drawn) [degrader #32, (2S,4R)-1-((2S)-2-(8-(7-((4′-chloro-4-methyl-6-((4-(4-(((4-(((R)-4-morpholino-1-(phenylthio)butan-2-yl)amino)-3-((trifluoromethyl)sulfonyl)phenyl)sulfonyl)carbamoyl)phenyl)piperazin-1-yl)methyl)-2,3,4,5-tetrahydro-[1,1′-biphenyl]-4-yl)methyl)-2,7-diazaspiro[3.5]nonan-2-yl)-8-oxooctanamido)-3,3-dimethylbutanoyl)-4-hydroxy-N—((S)-1-(4-(4-methylthiazol-5-yl)phenyl)ethyl)pyrrolidine-2-carboxamide] | 50 to 150 | < 50
7 | Cc1ncsc1-c1ccc([C@H](C)NC(=O)[C@@H]2C[C@@H](O)CN2C(=O)[C@@H](NC(=O)CCCCCC(=O)NC2CCN(CC3(C)CCC(c4ccc(Cl)cc4)=C(CN4CCN(c5ccc(C(=O)NS(=O)(=O)c6ccc(N[C@H](CCN7CCOCC7)CSc7ccccc7)c(S(=O)(=O)C(F)(F)F)c6)cc5)CC4)C3)CC2)C(C)(C)C)cc1 (stereo partly drawn) [degrader #37, N1-(1-((4′-chloro-4-methyl-6-((4-(4-(((4-(((R)-4-morpholino-1-(phenylthio)butan-2-yl)amino)-3-((trifluoromethyl)sulfonyl)phenyl)sulfonyl)carbamoyl)phenyl)piperazin-1-yl)methyl)-2,3,4,5-tetrahydro-[1,1′-biphenyl]-4-yl)methyl)piperidin-4-yl)-N7-((S)-1-((2S,4R)-4-hydroxy-2-(((S)-1-(4-(4-methylthiazol-5-yl)phenyl)ethyl)carbamoyl)pyrrolidin-1-yl)-3,3-dimethyl-1-oxobutan-2-yl)heptanediamide] | 150 to 500 | < 50
8 | Cc1ncsc1-c1ccc([C@H](C)NC(=O)[C@@H]2C[C@@H](O)CN2C(=O)[C@@H](NC(=O)CCCCCCC(=O)NC2CCN(CC3(C)CCC(c4ccc(Cl)cc4)=C(CN4CCN(c5ccc(C(=O)NS(=O)(=O)c6ccc(N[C@H](CCN7CCOCC7)CSc7ccccc7)c(S(=O)(=O)C(F)(F)F)c6)cc5)CC4)C3)CC2)C(C)(C)C)cc1 (stereo partly drawn) [degrader #38, N1-(1-((4′-chloro-4-methyl-6-((4-(4-(((4-(((R)-4-morpholino-1-(phenylthio)butan-2-yl)amino)-3-((trifluoromethyl)sulfonyl)phenyl)sulfonyl)carbamoyl)phenyl)piperazin-1-yl)methyl)-2,3,4,5-tetrahydro-[1,1′-biphenyl]-4-yl)methyl)piperidin-4-yl)-N8-((S)-1-((2S,4R)-4-hydroxy-2-(((S)-1-(4-(4-methylthiazol-5-yl)phenyl)ethyl)carbamoyl)pyrrolidin-1-yl)-3,3-dimethyl-1-oxobutan-2-yl)octanediamide] | 50 to 150 | < 50
9 | Cc1ncsc1-c1ccc([C@H](C)NC(=O)[C@@H]2C[C@@H](O)CN2C(=O)[C@@H](NC(=O)CC2CCC(CC(=O)N3CCN(CC4(C)CCC(c5ccc(Cl)cc5)=C(CN5CCN(c6ccc(C(=O)NS(=O)(=O)c7ccc(N[C@H](CCN8CCOCC8)CSc8ccccc8)c(S(=O)(=O)C(F)(F)F)c7)cc6)CC5)C4)CC3)CC2)C(C)(C)C)cc1 (some centres unmarked) [degrader #40] | < 50 | < 50
10 | Cc1ncsc1-c1ccc([C@H](C)NC(=O)[C@@H]2C[C@@H](O)CN2C(=O)[C@@H](NC(=O)CCCCCCC(=O)N2CCN(C[C@@]3(C)CCC(c4ccc(Cl)cc4)=C(CN4CCN(c5ccc(C(=O)NS(=O)(=O)c6ccc(N[C@H](CCN7CCOCC7)CSc7ccccc7)c(S(=O)(=O)C(F)(F)F)c6)cc5)CC4)C3)CC2)C(C)(C)C)cc1 [degrader #43, (2S,4R)-1-((S)-2-(8-(4-(((S)-4′-chloro-4-methyl-6-((4-(4-(((4-(((R)-4-morpholino-1-(phenylthio)butan-2-yl)amino)-3-((trifluoromethyl)sulfonyl)phenyl)sulfonyl)carbamoyl)phenyl)piperazin-1-yl)methyl)-2,3,4,5-tetrahydro-[1,1′-biphenyl]-4-yl)methyl)piperazin-1-yl)-8-oxooctanamido)-3,3-dimethylbutanoyl)-4-hydroxy-N—((S)-1-(4-(4-methylthiazol-5-yl)phenyl)ethyl)pyrrolidine-2-carboxamide] | 50 to 150 | 150 to 500
